O=C(NC[C@H]1CN(c2ccc(N3CCOCC3=O)cc2)C(=O)O1)c1ccc(Cl)s1
solubility (mole fraction)
Conditions	in 1,4-dioxane	in 2-butanone	in 2-hexanone	in 3-pentanone	in acetone	in acetonitrile	in methyl acetate
273.15 K	–	3.47e-05	1.78e-05	2.43e-05	4.06e-05	4.82e-05	3.2e-05
278.15 K	–	4.55e-05	2.24e-05	3.11e-05	5.29e-05	6.11e-05	4.05e-05
283.15 K	–	5.9e-05	2.79e-05	3.94e-05	6.83e-05	7.68e-05	5.07e-05
288.15 K	0.000132	7.59e-05	3.45e-05	4.95e-05	8.74e-05	9.58e-05	6.31e-05
293.15 K	0.000158	9.67e-05	4.24e-05	6.17e-05	0.000111	0.000119	7.79e-05
298.15 K	0.000189	0.000122	5.17e-05	7.64e-05	0.00014	0.000146	9.54e-05
303.15 K	0.000224	0.000153	6.27e-05	9.39e-05	0.000175	0.000178	0.000116
308.15 K	0.000265	0.000191	7.54e-05	0.000115	0.000216	0.000216	0.000141
313.15 K	0.000311	0.000236	9.03e-05	0.000139	0.000267	0.00026	0.000169
318.15 K	0.000363	0.00029	0.000107	0.000168	0.000326	0.000312	0.000202
323.15 K	0.000422	–	–	–	–	–	–
328.15 K	0.000488	–	–	–	–	–	–
333.15 K	0.000562	–	–	–	–	–	–

Source: BigSolDB 2.1
